From ChEMBL document CHEMBL1152321, “Recent advances in the chemistry and biology of new generation taxoids” (J Nat Prod, 2009)
pIC50: −log10 of the molar value.

Tests used:
[1] = Cytotoxicity against P-glycoprotein deficient wild type human LCC-6 cells after 72 hrs; format: functional, cell-based; conditions: LCC-6, 72 h
MCF7 [2] = experiment: Resistance factor, ratio of IC50 for P-glycoprotein deficient wild type human MCF7 cells to IC50 for multidrug-resistant human NCI/ADR cells; format: functional
[3] = Resistance factor, ratio of IC50 for human LCC-6 cells expressing P-glycoprotein to IC50 for P-glycoprotein deficient wild type human LCC-6 cells; format: functional; design: reference not given here
MCF7 [4] = experiment: Resistance factor, ratio of IC50 for human MCF7 cells expressing P-glycoprotein to IC50 for P-glycoprotein deficient wild type human MCF7 cells; format: functional
NCI-H460 = experiment: Cytotoxicity against human H460 cells after 72 hrs; format: functional, cell-based; conditions: NCI-H460, 72 h
MCF7 [5] = experiment: Cytotoxicity against P-glycoprotein deficient wild type human MCF7 cells after 72 hrs; format: functional, cell-based; conditions: MCF7, 72 h
MCF7 [6] = experiment: Cytotoxicity against human MCF7 cells expressing P-glycoprotein after 72 hrs; format: functional, cell-based; conditions: MCF7, 72 h
[7] = Cytotoxicity against human LCC-6 cells expressing P-glycoprotein after 72 hrs; format: functional, cell-based; conditions: LCC-6, 72 h
HT-29 = experiment: Cytotoxicity against human HT-29 cells after 72 hrs; format: functional, cell-based; conditions: HT-29, 72 h

| SMILES | pIC50 [1] | Ratio (MCF7 [2]) | Ratio [3] | Ratio (MCF7 [4]) | pIC50 (NCI-H460) | pIC50 (MCF7 [5]) | pIC50 (MCF7 [6]) | pIC50 [7] | pIC50 (HT-29) |
| --- | --- | --- | --- | --- | --- | --- | --- | --- | --- |
| CCC(=O)O[C@H]1C(=O)[C@@]2(C)[C@H]([C@H](OC(=O)c3ccccc3)[C@]3(O)C[C@H](OC(=O)[C@H](O)[C@H](CC(C)C)NC(=O)OC4CCCCC4)C(C)=C1C3(C)C)[C@]1(OC(C)=O)CO[C@@H]1C[C@@H]2O | 8.32 | 10 | 3.8 | – | – | – | – | – | – |
| CCC(=O)O[C@H]1C(=O)[C@@]2(C)[C@H]([C@H](OC(=O)c3cccc(OC)c3)[C@]3(O)C[C@H](OC(=O)[C@H](O)[C@H](C=C(C)C)NC(=O)OC4CCCCC4)C(C)=C1C3(C)C)[C@]1(OC(C)=O)CO[C@@H]1C[C@@H]2O | 8.91 | 9.7 | 12 | – | – | – | – | – | – |
| CCC(=O)O[C@H]1C(=O)[C@@]2(C)[C@H]([C@H](OC(=O)c3ccccc3)[C@]3(O)C[C@H](OC(=O)[C@H](O)[C@H](CC(C)C)NC(=O)C4CCCC4)C(C)=C1C3(C)C)[C@]1(OC(C)=O)CO[C@@H]1C[C@@H]2O | 8.20 | 12 | 10 | – | – | – | – | – | – |
| COc1cccc(C(=O)O[C@H]2[C@@H]3[C@]4(OC(C)=O)CO[C@@H]4C[C@H](O)[C@@]3(C)C(=O)[C@H](OC(=O)OCc3ccccc3)C3=C(C)[C@@H](OC(=O)[C@H](O)[C@H](C=C(C)C)NC(=O)OC(C)(C)C)C[C@]2(O)C3(C)C)c1 | 8.92 | 7.5 | 1.5 | – | – | – | – | – | – |
| COc1cccc(C(=O)O[C@H]2[C@@H]3[C@]4(OC(C)=O)CO[C@@H]4C[C@H](O)[C@@]3(C)C(=O)[C@H](OC(=O)c3ccccc3OC)C3=C(C)[C@@H](OC(=O)[C@H](O)[C@H](C=C(C)C)NC(=O)OC(C)(C)C)C[C@]2(O)C3(C)C)c1 | 9.40 | 3 | 2.3 | – | – | – | – | – | – |
| CCC(=O)O[C@H]1C(=O)[C@@]2(C)[C@H]([C@H](OC(=O)c3ccccc3)[C@]3(O)C[C@H](OC(=O)[C@H](O)[C@H](C=C(C)C)NC(=O)OC4CCCCC4)C(C)=C1C3(C)C)[C@]1(OC(C)=O)CO[C@@H]1C[C@@H]2O | 8.92 | 6.4 | 13 | – | – | – | – | – | – |
| CCC(=O)O[C@H]1C(=O)[C@@]2(C)[C@H]([C@H](OC(=O)c3cccc(OC)c3)[C@]3(O)C[C@H](OC(=O)[C@H](O)[C@H](C=C(C)C)NC(=O)C4CCCC4)C(C)=C1C3(C)C)[C@]1(OC(C)=O)CO[C@@H]1C[C@@H]2O | 8.96 | 32 | 10 | – | – | – | – | – | – |
| COC(=O)O[C@H]1C(=O)[C@@]2(C)[C@H]([C@H](OC(=O)c3cccc(OC)c3)[C@]3(O)C[C@H](OC(=O)[C@H](O)[C@H](C=C(C)C)NC(=O)OC(C)(C)C)C(C)=C1C3(C)C)[C@]1(OC(C)=O)CO[C@@H]1C[C@@H]2O | 9.22 | 3.5 | 2.7 | – | – | – | – | – | – |
| C=CC[C@H](NC(=O)OC(C)(C)C)[C@@H](O)C(=O)O[C@H]1C[C@@]2(O)[C@@H](OC(=O)c3cccc(OC)c3)[C@@H]3[C@]4(OC(C)=O)CO[C@@H]4C[C@H](O)[C@@]3(C)C(=O)[C@H](OC(=O)CC)C(=C1C)C2(C)C | 8.92 | 10.9 | 7 | – | – | – | – | – | – |
| CCC(=O)O[C@H]1C(=O)[C@@]2(C)[C@H]([C@H](OC(=O)c3cccc(OC)c3)[C@]3(O)C[C@H](OC(=O)[C@H](O)[C@H](C=C(C)C)NC(=O)C4CC4)C(C)=C1C3(C)C)[C@]1(OC(C)=O)CO[C@@H]1C[C@@H]2O | 8.96 | 15.6 | 16 | – | – | – | – | – | – |
| CCC(=O)O[C@H]1C(=O)[C@@]2(C)[C@H]([C@H](OC(=O)c3ccccc3)[C@]3(O)C[C@H](OC(=O)[C@H](O)[C@H](C=C(C)C)NC(=O)C4=CCCCC4)C(C)=C1C3(C)C)[C@]1(OC(C)=O)CO[C@@H]1C[C@@H]2O | 8.92 | 13 | 9.2 | – | – | – | – | – | – |
| C=CCC[C@H](NC(=O)OC(C)(C)C)[C@@H](O)C(=O)O[C@H]1C[C@@]2(O)[C@@H](OC(=O)c3cccc(OC)c3)[C@@H]3[C@]4(OC(C)=O)CO[C@@H]4C[C@H](O)[C@@]3(C)C(=O)[C@H](OC(=O)CC)C(=C1C)C2(C)C | 9.05 | 3.9 | 6 | – | – | – | – | – | – |
| CCC(=O)O[C@H]1C(=O)[C@@]2(C)[C@H]([C@H](OC(=O)c3ccccc3)[C@]3(O)C[C@H](OC(=O)[C@H](O)[C@H](C=C(C)C)NC(=O)OC(C)(C)C)C(C)=C1C3(C)C)[C@]1(OC(C)=O)CO[C@@H]1C[C@@H]2O | – | 22 | – | – | – | – | – | – | – |
| CCC(=O)O[C@H]1C(=O)[C@@]2(C)[C@H]([C@H](OC(=O)c3ccccc3)[C@]3(O)C[C@H](OC(=O)[C@H](O)[C@H](CC(C)C)NC(=O)OC4CCCC4)C(C)=C1C3(C)C)[C@]1(OC(C)=O)CO[C@@H]1C[C@@H]2O | 8.59 | 6.8 | 5.4 | – | – | – | – | – | – |
| CCC(=O)O[C@H]1C(=O)[C@@]2(C)[C@H]([C@H](OC(=O)c3cccc(OC)c3)[C@]3(O)C[C@H](OC(=O)[C@H](O)[C@H](CC(C)C)NC(=O)OC4CCCC4)C(C)=C1C3(C)C)[C@]1(OC(C)=O)CO[C@@H]1C[C@@H]2O | 9.12 | 6.9 | 3.4 | – | – | – | – | – | – |
| CC(=O)O[C@H]1C(=O)[C@@]2(C)[C@H]([C@H](OC(=O)c3cccc(N=[N+]=[N-])c3)[C@]3(O)C[C@H](OC(=O)[C@H](O)[C@@H](NC(=O)OC(C)(C)C)C(F)F)C(C)=C1C3(C)C)[C@]1(OC(C)=O)CO[C@@H]1C[C@@H]2O | 9.66 | – | 7.1 | 5.3 | 9.32 | 9.49 | 8.77 | 8.80 | 9.24 |
| CC(=O)O[C@H]1C(=O)[C@@]2(C)[C@H]([C@H](OC(=O)c3cccc(F)c3)[C@]3(O)C[C@H](OC(=O)[C@H](O)[C@@H](NC(=O)OC(C)(C)C)C(F)(F)F)C(C)=C1C3(C)C)[C@]1(OC(C)=O)CO[C@@H]1C[C@@H]2O | 9.42 | – | 16 | 13 | 9.31 | 9.35 | 8.25 | 8.23 | 8.95 |
| CCC(=O)O[C@H]1C(=O)[C@@]2(C)[C@H]([C@H](OC(=O)c3ccccc3)[C@]3(O)C[C@H](OC(=O)[C@H](O)[C@H](C=C(C)C)NC(=O)C4CCC4)C(C)=C1C3(C)C)[C@]1(OC(C)=O)CO[C@@H]1C[C@@H]2O | 8.89 | 34 | 26 | – | – | – | – | – | – |
| CCC(=O)O[C@H]1C(=O)[C@@]2(C)[C@H]([C@H](OC(=O)c3ccccc3)[C@]3(O)C[C@H](OC(=O)[C@H](O)[C@H](C=C(C)C)NC(=O)C4=CCCC4)C(C)=C1C3(C)C)[C@]1(OC(C)=O)CO[C@@H]1C[C@@H]2O | 8.92 | 15 | 12 | – | – | – | – | – | – |
| COC(=O)O[C@H]1C(=O)[C@@]2(C)[C@H]([C@H](OC(=O)c3cccc(F)c3)[C@]3(O)C[C@H](OC(=O)[C@H](O)[C@@H](NC(=O)OC(C)(C)C)C(F)(F)F)C(C)=C1C3(C)C)[C@]1(OC(C)=O)CO[C@@H]1C[C@@H]2O | 9.41 | – | 15 | 16 | 9.21 | 9.51 | 8.31 | 8.24 | 9.07 |
| CCC(=O)O[C@H]1C(=O)[C@@]2(C)[C@H]([C@H](OC(=O)c3cccc(N=[N+]=[N-])c3)[C@]3(O)C[C@H](OC(=O)[C@H](O)[C@@H](NC(=O)OC(C)(C)C)C(F)(F)F)C(C)=C1C3(C)C)[C@]1(OC(C)=O)CO[C@@H]1C[C@@H]2O | 8.96 | – | 2.3 | 4.2 | 9.70 | 9.42 | 8.79 | 8.59 | 9.40 |
| CCC(=O)O[C@H]1C(=O)[C@@]2(C)[C@H]([C@H](OC(=O)c3cccc(F)c3)[C@]3(O)C[C@H](OC(=O)[C@H](O)[C@@H](NC(=O)OC(C)(C)C)C(F)F)C(C)=C1C3(C)C)[C@]1(OC(C)=O)CO[C@@H]1C[C@@H]2O | 9.06 | – | 3.5 | 14 | 9.39 | 9.28 | 8.14 | 8.33 | 9.07 |
| CC(=O)O[C@H]1C(=O)[C@@]2(C)[C@H]([C@H](OC(=O)c3cccc(F)c3)[C@]3(O)C[C@H](OC(=O)[C@H](O)[C@@H](NC(=O)OC(C)(C)C)C(F)F)C(C)=C1C3(C)C)[C@]1(OC(C)=O)CO[C@@H]1C[C@@H]2O | 9.28 | – | 19 | 13 | 9.70 | 9.36 | 8.27 | 8.00 | 9.46 |
| CC(=O)O[C@@]12CO[C@@H]1C[C@H](O)[C@@]1(C)C(=O)[C@H](OC(=O)N(C)C)C3=C(C)[C@@H](OC(=O)[C@H](O)[C@@H](NC(=O)OC(C)(C)C)C(F)F)C[C@@](O)([C@@H](OC(=O)c4cccc(F)c4)[C@H]21)C3(C)C | 9.16 | – | 15 | 16 | 9.70 | 9.28 | 8.09 | 7.97 | 9.46 |
| CC(=O)O[C@@]12CO[C@@H]1C[C@H](O)[C@@]1(C)C(=O)[C@H](OC(=O)N(C)C)C3=C(C)[C@@H](OC(=O)[C@H](O)[C@@H](NC(=O)OC(C)(C)C)C(F)F)C[C@@](O)([C@@H](OC(=O)c4cccc(N=[N+]=[N-])c4)[C@H]21)C3(C)C | 9.54 | – | 5.8 | 3.9 | 9.28 | 9.43 | 8.84 | 8.77 | 9.40 |
| CCC(=O)O[C@H]1C(=O)[C@@]2(C)[C@H]([C@H](OC(=O)c3ccccc3)[C@]3(O)C[C@H](OC(=O)[C@H](O)[C@H](CC(C)C)NC(=O)OC(C)(C)C)C(C)=C1C3(C)C)[C@]1(OC(C)=O)CO[C@@H]1C[C@@H]2O | – | 15 | – | – | – | – | – | – | – |
